Columns and labels:
Crabgrass (CG) [1] = experiment: Pre-emergence herbicide test; type: in vivo, Digitaria sanquinalis; settings: Digitaria sanguinalis, pre-emergence, 336 h; 8 lb/acre; two weeks after treatment
Method in brief: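 Crabgrass (Digitaria sanquinalis) was surface seeded in 3' plastic pots of potting soil, covered with screened soil, and watered by sub-irrigation in greenhouse trays. Pots were seeded one day before spraying in a hood with a moving belt and fixed nozzle. Plants stayed in the greenhouse on sub-irrigation, and pre-emergence control was rated visually two weeks after treatment.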

[2] = system: Yellow foxtail grass (YF); experiment: Pre-emergence herbicide test; type: in vivo, Setaria glauca; settings: Setaria, 336 h, 8 lb/acre, two weeks after treatment
Method in brief: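 Visual rating of injury/control made two weeks after a pre-emergence spray of 8 or 4 lbs active per acre (38 gal/acre) onto pots seeded the previous day. Greenhouse watering by sub-irrigation only.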

Johnson grass (JG) [3] = experiment: Pre-emergence herbicide test; type: in vivo, Sorgum helepense; settings: Sorghum halepense, 336 h, 8 lb/acre, two weeks after treatment
Method in brief: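 Visual injury or control rating two weeks post-treatment, after pre-emergence spray of 8 or 4 lbs active per acre (38 gal/acre) onto pots sown the previous day. Greenhouse watering by sub-irrigation only.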

Barnyard grass (BG) [4] = experiment: Pre-emergence herbicide test; type: in vivo; settings: Echinochloa crus-galli, 336 h, 8 lb/acre, two weeks after treatment
Method in brief: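 Greenhouse pre-emergence spray test: pots seeded one day before treatment received compound at rates of 8 or 4 lb/acre (38 gal/acre). Visual injury/control scores for Echinochloa crus-galli taken at two weeks, with watering by sub-irrigation only.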

Turnip (TP) [5] = experiment: Pre-emergence herbicide test; type: in vivo, Brassica sp.; settings: Brassica rapa, pre-emergence, 336 h; 8 lb/acre; two weeks after treatment
Method in brief: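 In this pre-emergence greenhouse test, turnip was seeded on the surface of potting soil in 3' plastic pots, lightly covered with screened soil, and watered from below. One day later the pots were sprayed in a belt-fed spray hood. Watering continued only by sub-irrigation, and percent control was visually scored two weeks after treatment.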

Cotton (CT) [6] = experiment: Pre-emergence herbicide test; type: in vivo, Gossypium hirsutum var. DPL smooth leaf; settings: Gossypium hirsutum, 336 h, 8 lb/acre, two weeks after treatment
Method in brief: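 Visual injury/control ratings were taken at two weeks post-spray. Pots seeded a day earlier received compound pre-emergence at 8 lbs/acre, or 4 lbs/acre, in a 38 gallon/acre spray volume, and were then held in the greenhouse, watered only from below.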

Corn (CN) [7] = experiment: Pre-emergence herbicide test; type: in vivo; settings: Zea mays, 336 h, 8 lb/acre, two weeks after treatment
Method in brief: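 Visual injury/control ratings were made 2 weeks post-spray on corn pots seeded (4 seeds, seed-diameter depth) the day before treatment. Application was a belt-hood spray of 38 gal/acre delivering 8 lbs active per acre, with a 4 lbs/acre rate also formulated. Watering was by sub-irrigation throughout.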

Bean (BN) [8] = experiment: Pre-emergence herbicide test; type: in vivo, Phaseolus vulgaris var. Black Valentine; settings: Phaseolus vulgaris, 336 h, 8 lb/acre, two weeks after treatment
Method in brief: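 Visual injury/control ratings were taken two weeks post-spray on sub-irrigated Phaseolus vulgaris var. Black Valentine. Pots were sown a day before treatment. Pre-emergence spray delivered 8 lbs actual compound per acre (or 4 lbs/acre) at 38 gallons per acre.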

Crabgrass (CG) [9] = experiment: Post-emergence herbicide test; type: in vivo, Digitaria sanquinalis; settings: Digitaria sanguinalis, post-emergence, 336 h; 8 lb/acre; two weeks after treatment
Method in brief: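 Crabgrass (Digitaria sanquinalis) was surface seeded individually in 3' plastic pots of potting soil, covered with screened soil, and watered by sub-irrigation in greenhouse trays. Planting was staggered so seedlings reached the target stage together. Post-emergence sprays were applied in a hood with a removable belt and fixed nozzle, and control was visually rated two weeks after treatment.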

[10] = system: Yellow foxtail grass (YF); experiment: Post-emergence herbicide test; type: in vivo, Setaria glauca; settings: Setaria, 336 h, 8 lb/acre, two weeks after treatment
Method in brief: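 Visual rating of injury/control made 2 weeks post-spray. Seedlings at a uniform growth stage in soil-filled pots received a hood spray of 8 lbs/acre active compound, 38 gallons/acre volume, with a 4 lbs/acre rate also formulated. Watering was by sub-irrigation only.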

Johnson grass (JG) [11] = experiment: Post-emergence herbicide test; type: in vivo, Sorgum helepense; settings: Sorghum halepense, 336 h, 8 lb/acre, two weeks after treatment
Method in brief: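 Visual injury or control scores taken 2 weeks after a post-emergence spray of pot-grown plants. Application was 8 lbs/acre (or 4 lbs/acre) in 38 gal/acre. Plants were held in the greenhouse with sub-irrigation only.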

Barnyard grass (BG) [12] = experiment: Post-emergence herbicide test; type: in vivo; settings: Echinochloa crus-galli, 336 h, 8 lb/acre, two weeks after treatment
Method in brief: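 Greenhouse pot-grown barnyard grass seedlings sprayed post-emergence at 8 lbs active compound per acre (some at 4 lbs/acre) in 38 gallons per acre, then sub-irrigated. Injury or control rated visually two weeks after treatment.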

Turnip (TP) [13] = experiment: Post-emergence herbicide test; type: in vivo, Brassica sp.; settings: Brassica rapa, post-emergence, 336 h; 8 lb/acre; two weeks after treatment
Method in brief: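 A greenhouse post-emergence herbicide test on turnip. Seeds were sown on the surface of potting soil in 3' plastic pots, lightly covered with screened soil and watered from below. Planting was timed so seedlings had 1 or 2 true leaves above the cotyledons at spraying, done in a hood with a fixed nozzle. Control or injury was scored by eye after two weeks.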

Cotton (CT) [14] = experiment: Post-emergence herbicide test; type: in vivo, Gossypium hirsutum var. DPL smooth leaf; settings: Gossypium hirsutum, post-emergence, 336 h; 8 lb/acre; two weeks after treatment
Method in brief: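 This greenhouse post-emergence test measured how well spray treatments controlled cotton. Seedlings of Gossypium hirsutum var. DPL smooth leaf, with expanded cotyledons and a first true leaf 1' in length, were sprayed with 50 ml formulations in a belt-fed spray hood. They were then returned to the greenhouse and watered only by sub-irrigation. Injury was scored visually as % control after two weeks.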

Corn (CN) [15] = experiment: Post-emergence herbicide test; type: in vivo; settings: Zea mays, 336 h, 8 lb/acre, two weeks after treatment
Method in brief: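 Greenhouse seedlings grown in potting soil and sprayed post-emergence at 8 lbs compound/acre (formulations also made for 4 lbs/acre) in 38 gallons/acre spray volume. Watering by sub-irrigation only. Injury or control rated visually two weeks after treatment.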

Bean (BN) [16] = experiment: Post-emergence herbicide test; type: in vivo, Phaseolus vulgaris var. Black Valentine; settings: Phaseolus vulgaris, post-emergence, 336 h; 8 lb/acre; two weeks after treatment
Method in brief: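 Bean seedlings (Phaseolus vulgaris var. Black Valentine) were grown in potting soil in 3' pots until the primary leaves expanded. They were then sprayed under a hood with a removable belt and fixed nozzle, using 50 ml formulations. Afterward they were returned to the greenhouse and watered only by sub-irrigation. Percent control was judged visually two weeks after treatment.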

[17] = system: variety of crops and weed species; experiment: Pre- and post-emergence herbicide tests, overall assessment of Tables III-VI; type: in vivo; settings: data of Tables III-VI
Method: All crop and weed species were planted individually in 3' plastic pots containing potting soil. Four seeds each of corn, cotton, and snapbeans were seeded to a depth equal to the diameter of the seed. All other species were surface seeded and sprinkled with screened soil in an amount sufficient to cover the seed. Immediately after planting, all pots were watered by sub-irrigation in greenhouse trays. Pots for the pre-emergence phase were seeded one day before treatment.
Compounds were tested at rates of application equivalent to 8 lbs. of actual compound per acre in a spray volume of 38 gallons per acre. Spray hood constants required to deliver the above volume are as follows:
Two weeks after treatment, pre- and post-emergence injury or control was visually rated, and the results were as shown in the following tables. Pre-emergence data are provided in TABLE III and post-emergence data are provided in TABLE IV, for compounds having the formula illustrated in TABLE I. Correspondingly, pre-emergence and post-emergence data, respectively, are set forth in TABLES V AND VI, for compounds having the formula illustrated in TABLE II.

Amaranth pigweed (PW) [18] = experiment: Pre-emergence herbicide test; type: in vivo, Amaranthus retroflexus; settings: 336 h, 8 lb/acre, two weeks after treatment
Method in brief: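 Visual injury or control ratings were made at two weeks on pre-emergence pots, sub-irrigated in the greenhouse. Seeds were sown a day before a hood spray delivering 8 lbs/acre (or 4 lbs/acre) of compound in 38 gallons per acre.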

Amaranth pigweed (PW) [19] = experiment: Post-emergence herbicide test; type: in vivo, Amaranthus retroflexus; settings: 336 h, 8 lb/acre, two weeks after treatment
Method in brief: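 Visual injury or control ratings were made two weeks after spraying, with greenhouse watering by sub-irrigation only. Treatment was post-emergence, when pigweed seedlings had 1 or 2 true leaves, at 8 lbs active compound per acre (4 lbs/acre formulations also made) in a 38 gallons-per-acre spray volume.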

SMILES	pest or weed control at 8966.8 g/ha (Crabgrass (CG) [1]) [%]	pest or weed control at 8966.8 g/ha [2] [%]	pest or weed control at 8966.8 g/ha (Johnson grass (JG) [3]) [%]	pest or weed control at 8966.8 g/ha (Barnyard grass (BG) [4]) [%]	pest or weed control at 8966.8 g/ha (Turnip (TP) [5]) [%]	pest or weed control at 8966.8 g/ha (Cotton (CT) [6]) [%]	pest or weed control at 8966.8 g/ha (Corn (CN) [7]) [%]	pest or weed control at 8966.8 g/ha (Bean (BN) [8]) [%]	pest or weed control at 8966.8 g/ha (Crabgrass (CG) [9]) [%]	pest or weed control at 8966.8 g/ha [10] [%]	pest or weed control at 8966.8 g/ha (Johnson grass (JG) [11]) [%]	pest or weed control at 8966.8 g/ha (Barnyard grass (BG) [12]) [%]	pest or weed control at 8966.8 g/ha (Turnip (TP) [13]) [%]	pest or weed control at 8966.8 g/ha (Cotton (CT) [14]) [%]	pest or weed control at 8966.8 g/ha (Corn (CN) [15]) [%]	pest or weed control at 8966.8 g/ha (Bean (BN) [16]) [%]	herbicidal effectiveness / selectivity, in words [17]	pest or weed control at 8966.8 g/ha (Amaranth pigweed (PW) [18]) [%]	pest or weed control at 8966.8 g/ha (Amaranth pigweed (PW) [19]) [%]
O=C(Nc1ccc(Cl)c(Cl)c1)Nc1nnc(C(F)(F)F)s1 [Example 16]	10	10	10	10	30	30	30	80	20	20	20	20	40	20	20	40	more selective when applied to a certain crop or weed species	–	–
Cc1nnc(NC(=O)N(C)C)s1 [Example 19]	10	–	20	10	20	30	80	80	20	20	20	10	50	40	20	50	The converse of this relationship	10	40

Reference: patent US4175081A, “5-Substituted thiadiazole ureas” (priority 1977, dated 1979)
